Measured values reported in patent US7452908B2, “Amide derivatives” (Banyu Pharmaceutical Co., Ltd., priority 1999, dated 2008).

Legend:
[1] = biological target: T1, human m5 muscarinic acetylcholine receptor expressed in CHO cells (Homo sapiens, UniProt P08912); experiment: Inhibition of [3H]-N-methylscopolamine binding to muscarinic m5 receptor; settings: 0.2 nM [3H]-N-methylscopolamine
T1 construct: purchased Receptor Biology, Inc; host or cells: CHO cells
T1 sequence (P08912 1-532): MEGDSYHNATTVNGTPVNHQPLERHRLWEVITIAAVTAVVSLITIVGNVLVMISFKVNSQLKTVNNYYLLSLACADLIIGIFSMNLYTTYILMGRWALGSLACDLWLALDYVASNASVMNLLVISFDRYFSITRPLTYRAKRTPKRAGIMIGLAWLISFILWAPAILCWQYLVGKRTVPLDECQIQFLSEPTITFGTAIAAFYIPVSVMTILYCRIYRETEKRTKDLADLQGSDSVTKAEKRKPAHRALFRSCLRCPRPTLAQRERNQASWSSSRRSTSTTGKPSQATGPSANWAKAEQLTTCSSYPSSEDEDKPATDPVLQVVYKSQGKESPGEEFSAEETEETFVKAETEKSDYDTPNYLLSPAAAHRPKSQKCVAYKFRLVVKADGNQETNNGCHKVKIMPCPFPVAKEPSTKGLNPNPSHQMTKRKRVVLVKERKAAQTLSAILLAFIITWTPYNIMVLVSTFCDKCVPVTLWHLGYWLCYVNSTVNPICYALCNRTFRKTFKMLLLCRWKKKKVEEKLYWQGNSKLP
Description: (§1) These tests were performed according to a modification of the method of Hargreaves, et al. (Br. J. Pharmacol. 107: 494-501, 1992). Namely, muscarinic acetylcholine receptors of human m1, m2, m3, m4 and m5 expressed in CHO cells (Receptor Biology, Inc.) were incubated with 0.2 nM [^3H]-N-methylscopolamine (82Ci/mmol, New England Nuclear, Inc.) and a test compound to be tested in 0.5 ml of 50 mM Tris-HCl, 10 mM MgCl2, 1 mM EDTA solution (pH 7.4) for 120 minutes at room temperature (about 20-25° C.), followed by suction filtration over a glass filter (UniFilter plate-GF/C; Packard). Then the filter was washed four times with 1 ml of ice-cold Tris-HCl buffer and dried at 50° C. for an hour. After adding a scintillator (Microscinti 0; Packard), the radioactivity of [^3H]-N-methylscopolamine binding to the filter was counted with a microplate scintillation counter (TopCount™; Packard). Non-specific receptor binding of [^3H]-N-methylscopolamine was measured by adding 1 μM N-methylscopolamine.

[2] = biological target: T2, human m1 muscarinic acetylcholine receptor expressed in CHO cells (Homo sapiens, UniProt P11229); experiment: Inhibition of [3H]-N-methylscopolamine binding to muscarinic m1 receptor; settings: 0.2 nM [3H]-N-methylscopolamine
T2 construct: purchased Receptor Biology, Inc; host or cells: CHO cells
T2 sequence (P11229 1-460): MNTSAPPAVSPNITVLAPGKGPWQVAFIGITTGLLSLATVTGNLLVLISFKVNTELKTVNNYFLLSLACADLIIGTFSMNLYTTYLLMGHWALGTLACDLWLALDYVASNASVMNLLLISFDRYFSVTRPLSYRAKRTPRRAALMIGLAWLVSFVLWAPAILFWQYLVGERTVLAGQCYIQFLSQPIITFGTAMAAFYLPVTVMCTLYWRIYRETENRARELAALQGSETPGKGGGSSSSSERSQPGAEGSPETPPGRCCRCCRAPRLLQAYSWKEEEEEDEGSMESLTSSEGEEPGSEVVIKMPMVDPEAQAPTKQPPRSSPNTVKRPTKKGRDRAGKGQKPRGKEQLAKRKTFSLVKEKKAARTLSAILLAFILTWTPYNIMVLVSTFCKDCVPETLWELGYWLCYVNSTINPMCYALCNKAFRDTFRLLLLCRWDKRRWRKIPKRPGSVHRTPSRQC
Description: as §1

[3] = biological target: T3, muscarinic M3 receptor (Rattus norvegicus, UniProt P08483); experiment: Antagonism to muscarinic M3 receptor in vivo: acetylcholine-induced airway resistance-increasing reaction in rats; settings: rat, iv, rats, acetylcholine (50 μg/kg) 5 minutes after test compound; read-out: ED50 Airway constriction M3
T3 construct: from tissue; host or cells: whole animal, male SD rats (in vivo)
T3 sequence (P08483 whole entry): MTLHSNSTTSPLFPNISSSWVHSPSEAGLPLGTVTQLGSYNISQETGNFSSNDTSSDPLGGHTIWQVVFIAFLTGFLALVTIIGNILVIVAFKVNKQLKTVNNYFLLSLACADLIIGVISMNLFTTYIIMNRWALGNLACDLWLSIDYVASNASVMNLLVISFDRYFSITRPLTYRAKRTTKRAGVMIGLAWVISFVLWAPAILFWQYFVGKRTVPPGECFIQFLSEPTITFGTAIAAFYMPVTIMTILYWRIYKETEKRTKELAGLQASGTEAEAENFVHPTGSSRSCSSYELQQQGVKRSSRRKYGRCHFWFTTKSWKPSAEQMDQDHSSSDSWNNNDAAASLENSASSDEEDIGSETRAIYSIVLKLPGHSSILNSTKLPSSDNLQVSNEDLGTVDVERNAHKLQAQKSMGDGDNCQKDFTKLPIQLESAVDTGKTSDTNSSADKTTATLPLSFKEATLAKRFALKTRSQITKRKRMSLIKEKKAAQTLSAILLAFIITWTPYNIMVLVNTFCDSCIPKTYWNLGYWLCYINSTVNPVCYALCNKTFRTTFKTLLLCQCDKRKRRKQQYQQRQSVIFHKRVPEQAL
Description: (§2) Male SD strain rats (weighing 300-500 g) were anesthetized with urethane (1 g/kg) and α-chloralose (50 mg/kg) administered intraperitoneally. The airway and carotid artery of each rat were isolated by laryngotomy and cannulated. The carotid artery cannula was used as the test compound administration route. After suppressing spontaneous respiration by hypodermic administration of succinylcholine (5 mg/body), the rats were transferred into Plethysmograph-box (PLYAN, Buxco) and artificially ventilated under the conditions of ventilation rate of 6 ml/kg per breath and respiration rate of 90 breaths/min., using a pulmotor for small animals (Model 681, Harvard Co.). Measurements of air rate and […], calculation of airway resistance and lung compliance and their recording were conducted with lung function analyzer (Model 6, Buxco). After about 10 minutes' stabilization period, the change in airway resistance induced by intravenous administration of acetylcholine (50 μg/kg) was measured twice at 5 minutes' interval. The change in airway resistance induced by the second acetylcholine administration was recorded as the pre-administration of the tested rat (pre-value). Five (5) minutes afterthe second acetylcholine-induced reaction measurement, the test compound or isotonic sodium chloride solution was intravenously administered. Five (5) minutes thereafter, acetylcholine was administered and whereby induced airway resistance change was measured. In this experiment, one-dosage evaluation was conducted per one animal of the tested rats. The changes in acetylcholine-induced airway resistance-increasing reaction (% of pre-value) caused by the tested compound and isotonic sodium chloride solution were calculated by the following Equation 1: […]
(§3) The inhibitory effect (inhibition ratio) of each test compound on the acetylcholine-induced airway resistance-increasing reaction was determined according to the following Equation 2.
(§4) Fifty (50)% inhibition dose (ED50; μg/kg) was calculated from the inhibition ratio of each dose of the tested compound.

[4] = test system: muscarinic M3 receptor; experiment: as above; design: species or system rat; settings: for Selectivity M1/M3 (in vivo): ratio of ED50 M1 to ED50 M3, rats i.v.; for Selectivity M2/M3 (in vivo): ratio of ED50 M2 to ED50 M3, rats i.v.
Description: as §2, §3, §4

[5] = biological target: T4, human m3 muscarinic acetylcholine receptor expressed in CHO cells (Homo sapiens, UniProt P20309); experiment: Inhibition of [3H]-N-methylscopolamine binding to muscarinic m3 receptor; settings: for Ki: human m3 in CHO cells, 0.2 nM [3H]-N-methylscopolamine; for Selectivity m1/m3: ratio of Ki m1 to Ki m3; for Selectivity m2/m3: ratio of Ki m2 to Ki m3; for Selectivity m4/m3: ratio of Ki m4 to Ki m3; for Selectivity m5/m3: ratio of Ki m5 to Ki m3
T4 construct: purchased Receptor Biology, Inc; host or cells: CHO cells
T4 sequence (P20309 whole entry): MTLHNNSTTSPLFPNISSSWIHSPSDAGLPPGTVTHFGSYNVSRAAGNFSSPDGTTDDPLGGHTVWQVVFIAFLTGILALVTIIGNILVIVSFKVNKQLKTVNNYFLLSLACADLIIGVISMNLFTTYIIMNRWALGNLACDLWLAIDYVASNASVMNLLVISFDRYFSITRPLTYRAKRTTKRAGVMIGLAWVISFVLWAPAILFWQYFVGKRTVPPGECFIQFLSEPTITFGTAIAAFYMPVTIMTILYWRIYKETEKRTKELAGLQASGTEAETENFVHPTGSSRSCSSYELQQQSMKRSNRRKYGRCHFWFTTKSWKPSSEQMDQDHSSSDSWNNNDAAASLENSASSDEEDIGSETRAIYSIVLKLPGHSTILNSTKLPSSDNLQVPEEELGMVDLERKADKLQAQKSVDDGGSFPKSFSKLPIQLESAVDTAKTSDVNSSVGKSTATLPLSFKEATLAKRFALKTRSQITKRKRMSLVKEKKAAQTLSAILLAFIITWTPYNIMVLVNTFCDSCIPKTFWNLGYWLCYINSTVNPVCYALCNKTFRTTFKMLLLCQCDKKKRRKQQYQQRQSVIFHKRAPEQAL
Description: as §1

SMILES | Ki [1] [nM] | Ki [2] [nM] | ED50 [3] [µg/kg] | Selectivity M1/M3 (in vivo) [4] [times] | Selectivity M2/M3 (in vivo) [4] [times] | Ki [5] [nM] | Selectivity m1/m3 [5] [times] | Selectivity m2/m3 [5] [times] | Selectivity m4/m3 [5] [times] | Selectivity m5/m3 [5] [times]
CC[N+]1(CC)CCC[C@H](CNC(=O)[C@H]2CCCN2C(=O)[C@@H]2C[C@@H](O)CN2C(=O)CC(c2ccccc2)(c2ccccc2)c2ccccc2)C1.[Cl-] [Example 133, (3R)-1,1-diethyl-3-({({(2R)-1-({(2S,4R)-4-hydroxy-1-(3,3,3-triphenylpropanoyl)-2-pyrrolidinyl}carbonyl)-2-pyrrolidinyl}carbonyl)amino}methyl)piperidinium chloride] | 1600 | > 2500 | 2.1 | >143 | 54 | 3.2 | >780 | 250 | 44 | 500
O=C(CCNC(=O)CNC(=O)CC(c1ccccc1)(c1ccccc1)c1ccccc1)NC[C@H]1CCCN(CC2CCCCC2)C1 [Example 12, N-{2-(3-{((3R)-1-cyclohexylmethyl-3-piperidyl)methyl}amino-3-oxopropyl)amino-2-oxoethyl}-3,3,3-triphenyloropanamide] | 32 | 140 | 15 | >200 | 100 | 0.38 | 370 | 89 | 47 | 84
